Data from patent publication US6770778B2, “N-(4-substituted phenyl)-anthranilic acid hydroxamate esters” (Pfizer Inc, priority 2002, dated 2004).

Legend:
[1] = system: MEK; assay: Cellular assay for measuring MEK inhibition (inhibition of ERK phosphorylation in C26 cells); type: cell-based; details: murine colon 26 (C26) carcinoma cells, 1 hour at 37° C., Western blot of dually phosphorylated ERK1 and ERK2
Procedure: The evaluation of the compounds as MEK inhibitors is performed in an assay that measures their ability to inhibit phosphorylation of MAP kinase (ERK) in murine colon 26 (C26) carcinoma cells. Since ERK1 and ERK2 represent the only known substrates for MEK, measurement of inhibition of ERK phosphorylation in cells provides direct readout of cellular MEK inhibition by the compounds of the invention. Briefly, the assay involves treating exponentially growing C26 cells with varying concentrations of the test compound (or vehicle control) for 1 hour at 37° C. Cells are then rinsed free of compound/vehicle and lysed in a solution containing 70 mM NaCl, 50 mM glycerol phosphate, 10 mM HEPES, pH 7.4, 1% Triton X-100, 1 mM Na3VO4, 100 μM PMSF, 10 μM leupeptin, and 10 μM pepstatin. Supernatants are then subjected to gel electrophoresis and Western blotting using a primary antibody recognizing dually phosphorylated ERK1 and ERK2. To evaluate total MAPK levels, blots were subsequently ‘stripped’ and re-probed with a 1:1 mixture of polyclonal antibodies recognizing unphosphorylated ERK1 and ERK2.
The inhibition data generated by the above protocol is disclosed in Table 1. If several concentrations of inhibitor were tested, IC50 values (the concentration which gives 50% inhibition) were determined graphically from the dose response curve for % inhibition. Otherwise, percent inhibitions at measured concentrations are reported.

melting point [°C] | IC50 [1] [nM] | SMILES
197 to 200 | > 10000 | CNC(=O)c1ccc(Nc2c(C(=O)NOCCO)ccc(F)c2F)c(F)c1 [Example 7, 2-{2-fluoro-4-[(methylamino)carbonyl]anilino}-3,4-difluoro-N-(2-hydroxyethoxy)benzamide]
180 to 183 | 73 | O=C(O)c1ccc(Nc2c(C(=O)NOCCO)ccc(F)c2F)cc1 [Example 2, 4-[[2,3-Difluoro-6-[[(2-hydroxyethoxy)amino]carbonyl]phenyl]amino]-benzoic acid]
158 to 160 | > 1000 | COC(=O)c1ccc(Nc2c(C(=O)NOCCO)ccc(F)c2F)cc1 [Example 1, Methyl 4-[[2.3-difluoro-6-[[(2-hydroxyethoxy)amino]carbonyl]phenyl]-amino]benzoate]
162 to 165 | 27 | COC(=O)c1ccc(Nc2c(C(=O)NOCCO)ccc(F)c2F)c(F)c1 [Example 3, Methyl 4-(2,3-difluoro-6-{[(2-hydroxyethoxy)amino]carbonyl}anilino)-3-fluorobenzoate]
121 to 123 | > 1000 | COCC#Cc1ccc(Nc2c(C(=O)NOCCO)ccc(F)c2F)c(F)c1 [Example 5, 3,4-Difluoro-2-[[2-fluoro-4-(3-methoxy-1-propynyl)phenyl]amino]-N-(2-hydroxyethoxy)benzamide]
196 to 200 | > 1000 | O=C(O)c1ccc(Nc2c(C(=O)NOCCO)ccc(F)c2F)c(F)c1 [Example 4, 4-(2,3-Difluoro-6-{[(2-hydroxyethoxy)amino]carbonyl}anilino)-3-fluorobenzoic acid]
161.5 to 162.5 | – | CC(=O)c1ccc(Nc2c(C(=O)NOCCO)ccc(F)c2F)c(Cl)c1 [Example 6, 2-(4-Acetyl-2-chloro-phenylamino)-3,4-difluoro-N-(2-hydroxy-ethoxy)-benzamide]
